Assay results: ChEMBL document CHEMBL1159237, “The isolation and structural elucidation of three new neolignans, piperulins [corrected] A, B, and C, as platelet activating factor receptor antagonists from Piper puberulum” (J Nat Prod, 1995)
pIC50, pKi: −log10 of the molar value.

Assays:
Oryctolagus cuniculus = species on record: Oryctolagus cuniculus; assay: Displacement of [3H]PAF from rabbit PAF receptor in isolated platelet plasma membrane at 10 uM; type: cell membranes
[1] = Displacement of [3H]PAF from rabbit PAF receptor in isolated platelet plasma membrane; type: cell membranes, Oryctolagus cuniculus

Row | Compound | Activity (Oryctolagus cuniculus) [%] | pIC50 [1] | pKi [1]
1 | C=CCC1=C[C@@]2(OC)[C@@H](C)[C@H](c3ccc(OC)c(OC)c3)[C@@H](C1=O)[C@@H]2OC(C)=O [PUBERULIN A] | 63 | 5.14 | 5.33
2 | C=CCC1=C[C@@]2(OC)[C@@H](C)[C@H](c3ccc4c(c3)OCO4)[C@@H](C1=O)[C@@H]2OC(C)=O [PUBERULIN B] | 43 | ≤ 5.00 | 
3 | C=CC[C@]12C=C(OC)C(=O)[C@H]([C@@H](c3ccc(O)c(OC)c3)[C@@H]1C)[C@@H]2OC(C)=O [PUBERULIN C] | 66 | 5.24 | 5.43
